The source of these data is PubChem BioAssay AID2060898 (Molecular Pharmacology Branch, DTP, NCI, 2025).

The subject of this test is 616215-338-R-J1-PDC complex spheroid viability. Put plainly: Anticancer human tumor 616215-338-R-J1-PDC patient-derived colon adenocarcinoma cell line growth inhibition [RAS]. Particulars: for viability, T/C: stronger effect = lower value. An excerpt: RAS pathway inhibitors in Combinations in Complex Spheroids
A high-throughput screen of multi-cell type tumor spheroids was designed to identify active combinations of RAS pathway inhibitors and targeted small molecules. Complex spheroids include a stromal component modeled by human endothelial cells (HUVEC) and fibroblasts modeled by human mesenchymal stem cells (MSCs). The concentration ranges selected for each drug and investigational agent were based upon clinically achievable concentrations if the clinical Cmax of the agent was known.
Compounds. The drugs and investigational agents: abemaciclib (NSC768073), cobimetinib (NSC768068), divarasib (GDC6063, NSC841802), docetaxel (NSC628503), GDC-1971 (RLY-1971, NSC841576), gemcitabine (NSC613327), inavolisib (NSC800729), ipatasertib (NSC767898), KB-0742 (NSC834161), MRTX-1133 (NSC836407), osimertinib (NSC779217), RMC-4630 (NSC839698), RMC-6236 (NSC851965), RMC-6291 (NSC852671), Ro-3306 (NSC812927), sapanisertib (NSC764658), SN-38 (NSC673596), staurosporine (NSC755774), SY5609 (NSC837396), and tovorafenib (DAY101, NSC766906), were obtained from the National Cancer Institute (NCI) Developmental Therapeutics Program Chemical Repository. The FDA-approved anticancer drug set is available from the NCI Developmental Therapeutics Program. […] The stock solutions were prepared in dimethyl sulfoxide (DMSO, Sigma-Aldrich, St. Louis, MO, cat. D2650) at 800-fold the tested concentration and stored at -70 degrees C prior to their use. All drugs and investigational agents were tested over a range starting from a high concentration at or near the clinical Cmax and decreasing in half-log increments. If the clinical Cmax for an agent had not been determined, the highest concentration tested was 10 microM.
Cell Culture. All cells were maintained in an incubator at 37 degrees C and 5% CO2 with 95% humidity. The PDC lines were cultured according to standard operating procedures established by the NCI PDMR. All PDCs were thawed and cultured in Matrigel-coated flasks prepared with a working solution of 1X Ham's F-12 nutrient mix, without supplementation (Invitrogen, Waltham, MA, cat. 11765054), 100 U/mL penicillin-streptomycin (Invitrogen, cat. 15140122), and 2.5% Matrigel (Corning Inc., Corning, NY, cat. 354248) for the first three passages. The 362531-283-R-J2-PDC and 782815-120-R-J1-PDC lines were cultured in 6C/Colon 1B media, which includes advanced DMEM/F-12 (Thermo Fisher Scientific, cat. 12634028), 10 mM HEPES (Thermo Fisher Scientific, cat. 15630080), 1X GlutaMAX supplement (Thermo Fisher Scientific, cat. 35050061), 0.1 mg/mL primocin (InvivoGen, San Diego, CA, cat. ant-pm-2), 10% defined fetal bovine serum, heat inactivated (HyClone Laboratories Inc., Logan, UT, cat. SH30070.03HI), 50% L-WRN conditioned media (ATCC, cat. CRL-3276), 1.25 mM N-Acetyl-L-cysteine (Sigma-Aldrich, cat. A9165), 10 mM nicotinamide (Sigma-Aldrich, cat. N0636), 1X B-27 supplement (Thermo Fisher Scientific, cat. 17504044), 1X N-2 supplement (Thermo Fisher Scientific, cat. 17502048), 50 ng/mL human EGF (Thermo Fisher Scientific, cat. PHG0311), and 10 microM Y-27632 dihydrochloride (Tocris Bioscience, cat. 1254). The K12877-001-R-J1-PDC line was cultured in 6I media, which includes all 6C/Colon 1B media plus 10 ng/mL human FGF-10 (PeproTech, cat. 100-26), 1 ng/mL human FGF-2 (PeproTech, cat. 100-18B), 1 µM prostaglandin E2 (Tocris Bioscience, cat. 2296), […] hydrocortisone (Sigma-Aldrich, cat. H4001), and […] bovine insulin (Sigma-Aldrich, cat. I6634). The K86415-001-R-J1-PDC line was cultured in 6D media, which includes all 6C/Colon 1B media components minus the L-WRN conditioned media. The 485176-168-R4-J1-PDC was cultured in PANC media, which includes all 6C/Colon 1B media plus 100 ng/mL human FGF-10 (PeproTech, cat. 100-26), 500 nM SB-431542 (Selleckchem, cat. S1067), and 10 nM gastrin (Tocris Bioscience, cat. 3006). […]

Where [1] appears, read: compound alone, run of 06/10/2024.
The mark [2] stands for this setting: compound alone, run of 05/20/2024.

Values joined by “and” are separate entries in the source; they are usually repeats but may differ in a detail not shown here. Equal entries are not always repeated.
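Also: spheroids exposed to agents for seven days before viability readout.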
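For viability, T/C in this document: 100% = DMSO vehicle control viability.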

As for `C#Cc1c(F)ccc2cc(O)cc(-c3ncc4c(N5CC6CCC(C5)N6)nc(OCC56CCCN5CC(F)C6)nc4c3F)c12` (configuration not stated), the viability, T/C was 107% [middle of 8 runs] (compound 0.0316 µM); 107% [middle of 8 runs] (compound 0.1 µM); 110% [middle of 8 runs] (compound 0.316 µM); 108% [middle of 8 runs] (compound 1 µM); 102% [middle of 8 runs] (compound 3.16 µM); 70.6% [middle of 8 runs] (compound 10 µM). For the same compound, the IC50 under setting [1] was more than 10000 nM.

Turning to `C=CC(=O)N1CCN(c2nc(OCC3CCCN3C)nc3c(F)c(-c4nc(N)cc(C)c4C(F)(F)F)c(Cl)cc23)C(C)C1` (configuration not stated), the viability, T/C reads like this: (compound 0.00316 µM) 100% [middle of 12 runs]; (compound 0.01 µM) 102% [middle of 12 runs]; (compound 0.0316 µM) 99.4% [middle of 12 runs]; (compound 0.1 µM) 102% [middle of 12 runs]; (compound 0.316 µM) 104% [middle of 12 runs]; (compound 1 µM) 103% [middle of 12 runs]. For the same compound, the IC50 under setting [1] is more than 1000 nM and the IC50 (curve of compound) was more than 1000 nM.

In the case of `C=CC(=O)Nc1cc(Nc2nccc(-c3cn(C)c4ccccc34)n2)c(OC)cc1N(C)CCN(C)C`, the viability, T/C was 96.5% [middle of 4 runs] (compound 0.00316 µM); 100% (2×) and 96% and 97.4% (compound 0.01 µM); 103% [middle of 4 runs] (compound 0.0316 µM); 105% [middle of 4 runs] (compound 0.1 µM); 109% [middle of 4 runs] (compound 0.316 µM); 74.3% [middle of 4 runs] (compound 1 µM). Besides, under “curve of compound”, the IC50 is more than 1000 nM.

For `CC(C)NCC(C(=O)N1CCN(c2ncnc3c2C(C)CC3O)CC1)c1ccc(Cl)cc1` (configuration not stated), the viability, T/C (compound 0.0316 µM) is 105% [middle of 4 runs]; the viability, T/C (compound 0.1 µM) is 100% [middle of 4 runs]; the viability, T/C (compound 0.316 µM) was 100% [middle of 4 runs]; the viability, T/C (compound 1 µM) was 101% [middle of 4 runs]; the viability, T/C (compound 3.16 µM) is 95.3% (2×) and 87.8% and 95.7%; the viability, T/C (compound 10 µM) is 49.3% [middle of 4 runs].

As for `CC(C)n1nc(-c2ccc3oc(N)nc3c2)c2c(N)ncnc21`, the viability, T/C was 99.5% (2×) and 101% and 97.1% (compound 0.000316 µM); 105% [middle of 4 runs] (compound 0.001 µM); 94.6% and 107% (2×) and 98% (compound 0.00316 µM); 107% [middle of 4 runs] (compound 0.01 µM); 110% [middle of 4 runs] (compound 0.0316 µM); 75.2% [middle of 4 runs] (compound 0.1 µM). Also, the IC50 (curve of compound) is more than 100 nM.

Turning to `CC(Nc1ccc2c(c1)OCCn1cc(N3C(=O)OCC3C(F)F)nc1-2)C(N)=O` (configuration not stated), the viability, T/C reads like this: (compound 0.0316 µM) 111% [middle of 4 runs]; (compound 0.1 µM) 108% [middle of 4 runs]; (compound 0.316 µM) 110% [middle of 4 runs]; (compound 1 µM) 107% [middle of 4 runs]; (compound 3.16 µM) 102% [middle of 4 runs]; (compound 10 µM) 83.5% [middle of 4 runs]. Further, the IC50 (curve of compound) was more than 10000 nM.

As for `CC1(C)CCC(Nc2ncc(C(F)(F)F)c(-c3c[nH]c4c(P(C)(C)=O)c(C#N)ccc34)n2)CN1` (configuration not stated), the viability, T/C (compound 0.000949 µM) was 98.8% [middle of 4 runs]; the viability, T/C (compound 0.003 µM) is 101% [middle of 4 runs]; the viability, T/C (compound 0.00949 µM) is 66.1% [middle of 4 runs]; the viability, T/C (compound 0.03 µM) was 40.8% [middle of 4 runs]; the viability, T/C (compound 0.0949 µM) was 37% [middle of 4 runs]; the viability, T/C (compound 0.3 µM) is 35.2% [middle of 4 runs]. For the same compound, the IC50 (curve of compound) is 20.3 nM [middle of 4 runs].

As for `CCN1CCN(Cc2ccc(Nc3ncc(F)c(-c4cc(F)c5nc(C)n(C(C)C)c5c4)n3)nc2)CC1`, the viability, T/C is 104% [middle of 4 runs] (compound 0.01 µM); 113% [middle of 4 runs] (compound 0.0316 µM); 117% (3×) and 120% (compound 0.1 µM); 64.1% (2×) and 70.2% and 59.4% (compound 1 µM). Under “curve of compound”, the IC50 is more than 1000 nM.

Turning to `CCc1c2c(nc3ccc(O)cc13)-c1cc3c(c(=O)n1C2)COC(=O)[C@]3(O)CC`, the viability, T/C reads like this: (compound 0.000949 µM) 104% [middle of 4 runs]; (compound 0.003 µM) 105% [middle of 4 runs]; (compound 0.03 µM) 37.2% [middle of 4 runs]; (compound 0.0949 µM) 24.3% [middle of 4 runs]; (compound 0.3 µM) 16.9% [middle of 4 runs].

Consider `CCn1c(-c2cc(N3CCN(C)CC3)cnc2C(C)OC)c2c3cc(ccc31)-c1csc(n1)CC(NC(=O)C1CC1C)C(=O)N1CCCC(N1)C(=O)OCC(C)(C)C2` (configuration not stated), for which the viability, T/C is 107% [middle of 8 runs] (compound 0.000949 µM); 106% [middle of 8 runs] (compound 0.003 µM); 81.7% [middle of 8 runs] (compound 0.00949 µM); 53.7% [middle of 8 runs] (compound 0.03 µM); 40.6% [middle of 8 runs] (compound 0.0949 µM); 37.5% [middle of 8 runs] (compound 0.3 µM). Also, under setting [2], the IC50 is 41.2 nM [middle of 8 runs].

In the case of `CCn1c(-c2cccnc2C(C)OC)c2c3cc(ccc31)N1CCOC(CC(NC(=O)C(C(C)C)N(C)C(=O)C3(F)CCN(C(=O)C#CC(C)(C)N(C)C)CC3)C(=O)N3CCCC(N3)C(=O)OCC(C)(C)C2)C1` (configuration not stated), the viability, T/C was 102% [middle of 8 runs] (compound 0.000949 µM); 102% [middle of 8 runs] (compound 0.003 µM); 107% [middle of 8 runs] (compound 0.00949 µM); 106% [middle of 8 runs] (compound 0.03 µM); 110% [middle of 8 runs] (compound 0.0949 µM); 109% [middle of 8 runs] (compound 0.3 µM). Also, the IC50 under setting [2] is more than 300 nM.

On to `Nc1ccn(C2OC(CO)C(O)C2(F)F)c(=O)n1` (configuration not stated), for which the viability, T/C reads like this: (compound 0.00316 µM) 101% [middle of 4 runs]; (compound 0.01 µM) 46.9% [middle of 4 runs]; (compound 0.0316 µM) 29.4% [middle of 4 runs]; (compound 0.1 µM) 16.2% [middle of 4 runs]; (compound 0.316 µM) 15.4% [middle of 4 runs]; (compound 1 µM) 15.7% [middle of 4 runs]. The IC50 (curve of compound) is 9.77 nM [middle of 4 runs].

As for `O=C(c1ccc(F)c(F)c1Nc1ccc(I)cc1F)N1CC(O)([C@@H]2CCCCN2)C1`, the viability, T/C is 111% [middle of 4 runs] (compound 0.00316 µM); 102% (2×) and 95.7% and 113% (compound 0.01 µM); 81.5% [middle of 4 runs] (compound 0.0316 µM); 41.5% [middle of 4 runs] (compound 0.1 µM); 19.9% [middle of 4 runs] (compound 0.316 µM); 5.56% [middle of 4 runs] (compound 1 µM). Moreover, the IC50 (curve of compound) was 78 nM [middle of 4 runs].
